The values below come from US9902722B2, “Biaryl kinase inhibitors” (BRISTOL-MYERS SQUIBB COMPANY, priority 2014, dated 2018).

pIC50: −log10 of the molar value.

Chain of GST-Xa-hAAK1 (Q2M2I8 whole entry): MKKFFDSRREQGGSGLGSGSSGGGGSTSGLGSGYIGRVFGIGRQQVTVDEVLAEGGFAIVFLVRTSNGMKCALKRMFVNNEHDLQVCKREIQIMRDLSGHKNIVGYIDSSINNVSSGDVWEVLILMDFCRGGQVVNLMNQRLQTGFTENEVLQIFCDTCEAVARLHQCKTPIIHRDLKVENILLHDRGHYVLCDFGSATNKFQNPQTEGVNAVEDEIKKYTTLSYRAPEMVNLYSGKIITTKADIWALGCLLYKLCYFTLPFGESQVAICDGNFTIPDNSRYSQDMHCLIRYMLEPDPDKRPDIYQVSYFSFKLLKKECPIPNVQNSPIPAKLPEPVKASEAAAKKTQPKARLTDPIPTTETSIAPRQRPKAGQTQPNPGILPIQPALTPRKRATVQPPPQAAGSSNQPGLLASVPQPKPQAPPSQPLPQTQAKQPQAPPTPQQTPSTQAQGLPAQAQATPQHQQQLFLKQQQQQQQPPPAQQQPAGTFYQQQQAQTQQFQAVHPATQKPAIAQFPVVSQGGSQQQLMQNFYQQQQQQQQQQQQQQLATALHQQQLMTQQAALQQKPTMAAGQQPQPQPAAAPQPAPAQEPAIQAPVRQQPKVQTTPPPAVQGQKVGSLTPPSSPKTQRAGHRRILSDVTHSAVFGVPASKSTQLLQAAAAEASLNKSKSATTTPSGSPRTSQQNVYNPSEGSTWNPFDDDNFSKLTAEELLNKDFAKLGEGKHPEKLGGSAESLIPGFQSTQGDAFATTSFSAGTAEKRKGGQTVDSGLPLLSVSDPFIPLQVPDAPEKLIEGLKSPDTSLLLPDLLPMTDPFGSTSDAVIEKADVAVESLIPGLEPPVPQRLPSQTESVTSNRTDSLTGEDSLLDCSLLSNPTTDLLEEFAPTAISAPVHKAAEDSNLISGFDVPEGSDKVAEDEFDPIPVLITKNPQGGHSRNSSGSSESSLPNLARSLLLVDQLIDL

This assay addresses GST-Xa-hAAK1 (Homo sapiens (Human), UniProt Q2M2I8). As to the kind of experiment: AAK1 Kinase Assay.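 Note: each compound tested across an eleven-point concentration series, with IC50 obtained through non-linear regression fitting.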 It counts as biochemical. Conditions: bacterially expressed GST-Xa-hAAK1 3.5 nM; ATP 22 μM; peptide substrate 1.5 μM; 3 hours at room temperature; Caliper LabChip 3000.
One may read the pIC50 as the negative decadic logarithm of the IC50, by convention in mol/L. Regarding `CC(=O)Nc1cccc(-c2ccc(OCC(C)(N)CC(C)C)c(C)c2)c1` (stereo not drawn) [Example 250, N-(4′-((2-amino-2,4-dimethylpentyl)oxy)-3′-methyl-[1,1′-biphenyl]-3-yl)acetamide], the negative-log IC50 (pIC50) was 6.18.
`CCc1cc(-c2cc(C(F)F)c(OC[C@@](C)(N)CC(C)C)cn2)ccn1` [Example 141, (S)-1-((4-(difluoromethyl)-2′-ethyl-[2,4′-bipyridin]-5-yl)oxy)-2,4-dimethylpentan-2-amine] gave a pIC50 of 8.74.
With `Cc1cc(-c2cc(C(F)F)c(OC[C@@](C)(N)CC(C)C)cn2)ccn1` [Example 122, (S)-1-((4-(difluoromethyl)-2′-methyl-[2,4′-bipyridin]-5-yl)oxy)-2,4-dimethylpentan-2-amine] the figure was 9.29; with `CC(C)C[C@](C)(N)COc1cnc(-c2ccnc3ccc(Cl)cc23)cc1Cl` [Example 239, (S)-1-((4-chloro-6-(6-chloroquinolin-4-yl)pyridin-3-yl)oxy)-2,4-dimethylpentan-2-amine], 9.41.
To `CC(C)C[C@](C)(N)COc1cnc(-c2ccnc3cc(C(F)(F)F)ccc23)cc1Cl` [Example 242, (S)-1-((4-chloro-6-(7-(trifluoromethyl)quinolin-4-yl)pyridin-3-yl)oxy)-2,4-dimethylpentan-2-amine] belongs 8.72; to `COc1cc(-c2ccnc(C(F)F)c2)ncc1OC[C@@](C)(N)CC(C)C` [Example 207, (S)-1-((2′-(difluoromethyl)-4-methoxy-[2,4′-bipyridin]-5-yl)oxy)-2,4-dimethylpentan-2-amine], 7.72.
With `CC(=O)Nc1cccc(-c2ccc(OC[C@](C)(N)CC(C)C)c(C)c2)c1` [Example 251] the figure was 5.96; with `Cc1cc(-c2cc(C(F)(F)F)c(OC[C@@](C)(N)CC(C)C)cn2)ccn1` [Example 144, (S)-2,4-dimethyl-1-((2′-methyl-4-(trifluoromethyl)-[2,4′-bipyridin]-5-yl)oxy)pentan-2-amine], 8.89.
Turning to `COC(=O)Nc1cc(-c2ccc(OC[C@@](C)(N)CC(C)C)c(S(C)(=O)=O)c2)ccn1` [Example 113, (S)-methyl (4-(4-((2-amino-2,4-dimethylpentyl)oxy)-3-(methylsulfonyl)phenyl)pyridin-2-yl)carbamate], the pIC50 is 7.37.
To `CC(C)C[C@](C)(N)COc1ncc(-c2ccnc3cc(F)cc(F)c23)cc1C(F)(F)F` [Example 218, (S)-1-((5-(5,7-difluoroquinolin-4-yl)-3-(trifluoromethyl)pyridin-2-yl)oxy)-2,4-dimethylpentan-2-amine] belongs 9.00; to `CC(C)C[C@](C)(N)COc1ccc(-c2ccnc3ccccc23)cc1C(F)(F)F` [Example 69, (S)-2,4-dimethyl-1-(4-(quinolin-4-yl)-2-(trifluoromethyl)phenoxy)pentan-2-amine], 9.12.
With `CC(=O)Nc1cc(-c2cc(F)c(OC[C@@H](N)CC(C)C)c(Cl)c2)ccn1` [Example 10, (S)—N-(4-(4-((2-amino-4-methylpentyl)oxy)-3-chloro-5-fluorophenyl)pyridin-2-yl)acetamide] the figure was 8.00; with `CC(C)C[C@](C)(N)COc1ccc(-c2cc(F)ncc2Cl)cc1C(F)(F)F` [Example 40, (S)-1-(4-(5-chloro-2-fluoropyridin-4-yl)-2-(trifluoromethyl)phenoxy)-2,4-dimethylpentan-2-amine], 8.06; with `CC(C)C[C@](C)(N)COc1ccc(-c2ccnc3cc(C(F)(F)F)ccc23)cc1C(F)(F)F` [Example 70, (S)-2,4-dimethyl-1-(2-(trifluoromethyl)-4-(7-(trifluoromethyl)quinolin-4-yl)phenoxy)pentan-2-amine], 8.64.
With `COC(=O)Nc1cc(-c2cnc(OC[C@@](C)(N)CC(C)C)nc2)ccn1` [Example 211, (S)-methyl (4-(2-((2-amino-2,4-dimethylpentyl)oxy)pyrimidin-5-yl)pyridin-2-yl)carbamate] the figure was 6.31.
`CC(C)C[C@](C)(N)COc1ncc(-c2ccnc3ccccc23)cc1F` [Example 98, (S)-1-((3-fluoro-5-(quinolin-4-yl)pyridin-2-yl)oxy)-2,4-dimethylpentan-2-amine] gave a pIC50 of 8.00.
To `CC(C)C[C@](C)(N)COc1ccc(-c2ccnc(C(F)F)c2)nc1C(F)F` [Example 123, (S)-1-((2′,6-bis(difluoromethyl)-[2,4′-bipyridin]-5-yl)oxy)-2,4-dimethylpentan-2-amine] belongs 8.66.
To `Cc1cc(-c2ccnc3cc(F)cc(F)c23)ncc1OC[C@@](C)(N)CC(C)C` [Example 226, (S)-1-((6-(5,7-difluoroquinolin-4-yl)-4-methylpyridin-3-yl)oxy)-2,4-dimethylpentan-2-amine] belongs 9.03.
For `COC(=O)Nc1cc(-c2cc(C(F)F)c(OC[C@](N)(CF)CC(C)C)cn2)ccn1` [Example 181, (S)-methyl (5-((2-amino-2-(fluoromethyl)-4-methylpentyl)oxy)-4-(difluoromethyl)-[2,4′-bipyridin]-2′-yl)carbamate], the pIC50 is 8.72. Compared with the last compound, the pIC50 is 0.31 log units lower.
To `CC(C)C[C@](C)(N)COc1ccc(-c2ccnc3cc(F)cc(F)c23)nc1Cl` [Example 135, (S)-1-((2-chloro-6-(5,7-difluoroquinolin-4-yl)pyridin-3-yl)oxy)-2,4-dimethylpentan-2-amine] belongs 8.46; to `CC(C)C[C@](C)(N)COc1ccc(-c2ccnc(F)c2)cc1C#N` [Example 94, (S)-2-((2-amino-2,4-dimethylpentyl)oxy)-5-(2-fluoropyridin-4-yl)benzonitrile], 8.33; to `COC(=O)Nc1cc(-c2ccc(OC[C@@](C)(N)CC(C)C)c3ccccc23)ccn1` [Example 208, (S)-methyl (4-(4-((2-amino-2,4-dimethylpentyl)oxy)naphthalen-1-yl)pyridin-2-yl)carbamate], 8.34.
To `CC(C)C[C@](N)(CF)COc1ccc(-c2ccnc(C(F)F)c2)nc1C(F)F` [Example 185, (R)-1-((2′,6-bis(difluoromethyl)-[2,4′-bipyridin]-5-yl)oxy)-2-(fluoromethyl)-4-methylpentan-2-amine] belongs 7.18.
In the case of `CC(C)C[C@](C)(N)COc1ccc(-c2ccnc3ccccc23)cc1S(C)(=O)=O` [Example 115, (S)-2,4-dimethyl-1-(2-(methylsulfonyl)-4-(quinolin-4-yl)phenoxy)pentan-2-amine], the negative-log IC50 (pIC50) was 7.89.
To `COc1cnccc1-c1ccc(OC[C@@](C)(N)CC(C)C)c(C(F)(F)F)c1` [Example 46, (S)-1-(4-(3-methoxypyridin-4-yl)-2-(trifluoromethyl)phenoxy)-2,4-dimethylpentan-2-amine] belongs 9.07; to `COC(=O)Nc1cc(-c2cc(C(F)F)c(OC[C@@](C)(O)CC(C)C)cn2)ccn1` [Example 177, (S)-methyl (4-(difluoromethyl)-5-((2-hydroxy-2,4-dimethylpentyl)oxy)-[2,4′-bipyridin]-2′-yl)carbamate], 8.06; to `CC(=O)Nc1cc(-c2cc(F)c(OC[C@@H](N)CC(C)C)cc2F)ccn1` [Example 12, (S)—N-(4-(4-((2-amino-4-methylpentyl)oxy)-2,5-difluorophenyl)pyridin-2-yl)acetamide], 8.80.
